Assay results reported in paper PMC8689140 (Frontiers in Pharmacology, 2021).

Columns and labels:
CYP2C9 = tested on: T1, CYP2C9; assay: P450 phenotyping, chemical inhibitors in HLMs, CYP2C9; assay type: in vitro ADME, human; conditions: CYP2C9 probe substrate, 5 µM, specific inhibitor
T1 construct: tissue Corning Co., Ltd (Shanghai, China); host or cells: human liver microsomes
Procedure: (§1) According to the result of metabolite identification, three metabolites were selected as the targets for metabolic phenotyping. Seven CYP isozymes (CYP1A2, CYP2B6, CYP2C8, CYP2C9, CYP2C19, CYP2D6, and CYP3A4) were investigated using two kinds of methods: chemical inhibitors in human liver microsomes (HLMs) method (Experiment 1) and rhCYP isozymes method (Experiment 2).
Experiment 1: HLMs were thawed on ice and diluted in100 mM sodium phosphate buffer (pH 7.4) containing 3 mM magnesium chloride. […] After 10 min of preincubation at 37°C, the reactions were initiated by adding 20 µL of NADPH (10 mM) and then incubated at 37 °C in a shaking water bath for 30 min. The samples were prepared in triplicates. The reactions were terminated by adding 600 µL of ice-cold acetonitrile and stored at −20°C until analysis. Control samples without NADPH and 0-time point samples were included. As positive controls, the probe substrates of each P450 isozyme under the same conditions were tested, and specific inhibitors was added. Next, the samples were centrifuged at 13,000 rpm for 10 min, the supernatants were determined by LC–MS/MS.

rhCYP CYP2C9 = tested on: T2, rhCYP CYP2C9; assay: P450 phenotyping, rhCYP isozymes, CYP2C9; assay type: in vitro ADME, human; conditions: rhCYP2C9 probe substrate, 1 µM
T2 construct: purchased Corning Co., Ltd (Shanghai, China)
Description: as §1
Experiment 2: Each rhCYP isozyme was thawed and diluted as above method. As positive controls, the probe substrates of each P450 isozyme were tested under the same conditions. […] Vx ([…]) is the production rate of metabolites for each rhCYP isozyme.

O=C(O)Cc1ccccc1Nc1c(Cl)cccc1Cl [Diclofenac]
%Inhibation in HLM (CYP2C9): 89.9%
CL int in rhCYP (rhCYP CYP2C9): 6.15 µL/min/pmol
